We go through three molecules from article PMC8634379, “From the Design to the In Vivo Evaluation of Benzohomoadamantane-Derived Soluble Epoxide Hydrolase Inhibitors for the Treatment of Acute Pancreatitis” (Journal of Medicinal Chemistry, 2021).

Series [1] is described as follows: Microsomal stability. In kind it is in vitro ADME, human. Conditions: after 60 min incubation, NADP, 37 °C. Here is the method: (§1) The human, rat, and mice recombinant microsomes employed were purchased from Tebu–Xenotech. […] Samples (75 μL) were taken from each well at 0, 10, 20, 40, and 60 min and transferred to a plate containing 4 °C 75 μL of acetonitrile and 30 μL of 0.5% formic acid in water were added for improving the chromatographic conditions. The plate was centrifuged ([…], 30 min) and supernatants were taken and analyzed by an ultraperformance liquid chromatograph–tandem mass spectrometer (Xevo-TQD, Waters) by employing a BEH C18 column and an isocratic gradient of 0.1% formic acid in water: 0.1% formic acid acetonitrile (60:40). The metabolic stability of the compounds was calculated from the logarithm of the remaining compounds at each of the time points studied.

Series [2] in a line: Microsomal stability. Particulars: after 60 min incubation, NADP, 37 °C. The procedure:
as §1

Series [3] in a line: Solubility in 1% DMSO: 99% PBS (nephelometry). In kind it is physicochemical. Particulars: PBS with 1% DMSO, 1% DMSO: 99% PBS buffer solution, 37 °C. The procedure: A 10 mM stock solution of the compound was serially diluted in 100% DMSO and 1 μL of this solution was added to a 384-well UV-transparent plate (Greiner) containing 99 μL of PBS. The plate was incubated at 37 °C for 2 h and the light scattering was measured in a Nephelostar Plus reader (BMG LABTECH). The data were fitted to a segmented linear regression for measuring the compound solubility.

The next series has as its system SH-SY5Y cells. Description: Cytotoxicity by propidium iodide staining. Particulars: 100 μM, 24 h. Format: cell-based. Here is the method:
Cytotoxicity was evaluated in the human neuroblastoma SH-SY5Y cell line (ATCC number: CRL-2266). Cells were cultured in minimum essential medium/Ham’s-F12 (1:1, v/v) medium, supplemented with non-essential amino acids, 10% fetal bovine serum, 1 mM glutamine, and 50 μg/mL gentamycin (all reagents from Gibco, Invitrogen). For experiments, the cells were seeded at 3 × 10^5 cells/mL (100 μL/well) in 96-well plates (Nunc). After 24 h, the testing compounds were added concentrated to triplicate wells to obtain the final different concentrations up to 100 μM. Compounds were incubated for further 24 h. At termination, cytotoxicity was analyzed by the propidium iodide (PI) fluorescence stain assay. All compounds were tested in three independent experiments using different cell passages. The PI assay measures cell death. […]. The percentage of cell death induced by the treatments was calculated from the fluorescence of treated cells (Ft) relative to that of control cells (Fmin) and cells incubated with Triton X100 (Fmax) as the 0 and 100% cell death, respectively [% = ((Ft – Fmin)/(Fmax – Fmin)) × 100].

The target in a further series is CYP 2C9 (Homo sapiens, UniProt P11712). Description: Cytochrome P450 inhibition, fluorescence detection. In kind it is in vitro ADME. Conditions: at 10 μM.
Sequence of CYP 2C9 (P11712 whole entry): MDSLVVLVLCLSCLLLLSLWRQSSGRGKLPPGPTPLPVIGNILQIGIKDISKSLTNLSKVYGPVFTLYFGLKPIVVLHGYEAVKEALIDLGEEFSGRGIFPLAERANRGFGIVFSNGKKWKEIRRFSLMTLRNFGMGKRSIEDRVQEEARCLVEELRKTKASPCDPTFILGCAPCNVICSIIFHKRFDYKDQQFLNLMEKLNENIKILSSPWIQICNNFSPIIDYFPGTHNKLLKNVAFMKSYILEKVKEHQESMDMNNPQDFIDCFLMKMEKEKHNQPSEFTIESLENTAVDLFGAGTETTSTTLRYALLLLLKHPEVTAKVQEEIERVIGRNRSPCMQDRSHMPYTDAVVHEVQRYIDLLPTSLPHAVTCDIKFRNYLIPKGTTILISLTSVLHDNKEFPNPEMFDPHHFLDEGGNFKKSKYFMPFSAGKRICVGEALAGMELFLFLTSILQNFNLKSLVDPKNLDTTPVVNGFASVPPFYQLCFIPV
In a further series the target is CYP 2C19 (Homo sapiens, UniProt P33261). Description: Cytochrome P450 inhibition, fluorescence detection. In kind it is in vitro ADME.
Sequence of CYP 2C19 (P33261 whole entry): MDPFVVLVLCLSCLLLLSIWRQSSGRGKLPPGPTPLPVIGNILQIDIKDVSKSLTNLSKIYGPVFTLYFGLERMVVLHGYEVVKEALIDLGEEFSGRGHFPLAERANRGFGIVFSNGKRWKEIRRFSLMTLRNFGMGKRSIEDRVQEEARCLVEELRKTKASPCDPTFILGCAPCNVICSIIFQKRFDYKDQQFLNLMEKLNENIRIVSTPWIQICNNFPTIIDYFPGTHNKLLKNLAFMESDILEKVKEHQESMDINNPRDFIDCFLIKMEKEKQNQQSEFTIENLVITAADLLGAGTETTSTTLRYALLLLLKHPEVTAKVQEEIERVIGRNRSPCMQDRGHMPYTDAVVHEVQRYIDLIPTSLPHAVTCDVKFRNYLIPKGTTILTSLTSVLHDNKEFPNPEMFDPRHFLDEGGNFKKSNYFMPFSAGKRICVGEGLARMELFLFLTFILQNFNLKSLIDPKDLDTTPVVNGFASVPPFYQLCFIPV
For the next series, the target named is CYP 2D6 (Homo sapiens, UniProt P10635). The experiment in a line: Cytochrome P450 inhibition, fluorescence detection. In kind it is in vitro ADME. Conditions: at 10 μM.
Sequence of CYP 2D6 (P10635 whole entry): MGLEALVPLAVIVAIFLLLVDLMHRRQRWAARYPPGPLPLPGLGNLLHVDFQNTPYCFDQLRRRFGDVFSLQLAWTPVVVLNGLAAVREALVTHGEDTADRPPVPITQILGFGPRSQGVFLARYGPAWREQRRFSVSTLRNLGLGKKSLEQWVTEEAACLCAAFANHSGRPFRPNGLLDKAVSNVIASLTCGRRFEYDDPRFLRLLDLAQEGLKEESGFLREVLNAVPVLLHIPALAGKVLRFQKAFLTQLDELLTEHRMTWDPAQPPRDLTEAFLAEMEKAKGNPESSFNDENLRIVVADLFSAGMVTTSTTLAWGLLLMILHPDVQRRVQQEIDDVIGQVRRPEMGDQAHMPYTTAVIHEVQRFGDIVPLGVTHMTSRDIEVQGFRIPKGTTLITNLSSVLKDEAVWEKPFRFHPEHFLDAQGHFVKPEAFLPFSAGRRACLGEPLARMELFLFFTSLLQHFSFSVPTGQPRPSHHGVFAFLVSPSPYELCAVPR
For another series, the target named is T1, hERG potassium channel (Homo sapiens, UniProt Q12809).
T1 construct: expressed in transfected cells; host or cells: CHO
T1 sequence (Q12809 whole entry): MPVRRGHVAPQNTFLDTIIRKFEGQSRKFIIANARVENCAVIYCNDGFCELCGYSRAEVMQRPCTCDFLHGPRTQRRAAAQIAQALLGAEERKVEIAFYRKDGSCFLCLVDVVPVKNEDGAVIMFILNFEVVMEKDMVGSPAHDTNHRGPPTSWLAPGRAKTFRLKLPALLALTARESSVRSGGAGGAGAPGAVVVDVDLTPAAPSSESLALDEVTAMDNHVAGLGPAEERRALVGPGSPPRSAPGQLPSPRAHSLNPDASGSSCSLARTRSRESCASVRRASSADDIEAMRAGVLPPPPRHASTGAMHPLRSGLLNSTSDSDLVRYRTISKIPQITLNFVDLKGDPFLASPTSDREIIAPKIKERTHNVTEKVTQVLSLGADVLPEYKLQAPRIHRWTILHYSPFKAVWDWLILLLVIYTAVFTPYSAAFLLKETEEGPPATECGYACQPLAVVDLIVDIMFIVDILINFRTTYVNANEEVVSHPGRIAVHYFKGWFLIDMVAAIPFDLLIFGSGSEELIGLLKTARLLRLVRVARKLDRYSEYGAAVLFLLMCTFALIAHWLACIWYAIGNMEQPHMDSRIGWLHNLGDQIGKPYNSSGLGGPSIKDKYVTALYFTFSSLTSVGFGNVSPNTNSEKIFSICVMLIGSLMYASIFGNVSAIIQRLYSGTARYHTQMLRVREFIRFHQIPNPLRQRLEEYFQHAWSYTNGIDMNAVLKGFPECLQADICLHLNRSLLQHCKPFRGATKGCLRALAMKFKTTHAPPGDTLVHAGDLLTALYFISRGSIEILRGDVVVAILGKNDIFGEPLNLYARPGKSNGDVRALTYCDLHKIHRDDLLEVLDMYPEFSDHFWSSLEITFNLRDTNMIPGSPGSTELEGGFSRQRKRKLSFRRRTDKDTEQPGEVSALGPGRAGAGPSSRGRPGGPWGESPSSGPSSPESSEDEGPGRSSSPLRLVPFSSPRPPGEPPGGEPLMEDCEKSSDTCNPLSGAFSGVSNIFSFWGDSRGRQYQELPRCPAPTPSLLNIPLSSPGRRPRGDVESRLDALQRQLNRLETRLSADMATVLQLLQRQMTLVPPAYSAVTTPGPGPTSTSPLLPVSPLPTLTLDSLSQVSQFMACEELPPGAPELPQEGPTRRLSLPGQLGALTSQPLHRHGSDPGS
Description: hERG inhibition assay (Fluxor potassium ion channel kit, transfected CHO cells). Format: cell-based. Particulars: at 10 μM. The procedure:
The assay was carried out at a CHO cell line transfected with the hERG potassium channel. 72 h before the assay, 2500 cells were seeded on a 384-well black plate (Greiner 781091). The cell line was maintained at 37 °C in a 5% CO2 atmosphere for 24 h and at 30 °C in a 5% CO2 atmosphere for 48 h plus. hERG activity was measured by using the FluxorTM Potassium Ion Chanel Assay Kit (Thermo Fisher F10016). Medium was replaced for 20 μL of loading buffer and the cells were incubated for 60 min at RT, protected from direct light. After incubation, the loading buffer was replaced for the assay buffer and the compounds were incubated for 30 min at RT. 5 μL of a stimulus buffer was added to each well and the fluorescence was read (λex = 490 nm, λem = 525 nm) using an imaging plate reader system (FDSS7000EX, Hamamatsu) every second after the establishment of a baseline line.

Series [4] can be described thus: Pharmacokinetic study after IP administration. In kind it is in vivo, male C57BL/6 mice. Particulars: for AUC(0-t) / Cl / Cmax / Tmax / Vd / half-life / AUC(0-inf): ip; for AUC(0-inf): AUCINF. Here is the method:
During the experimental procedure, animals were identified with a permanent marker (tail code numbers). […] They underwent a period of at least 5 days of observation and acclimatization between the date of arrival and the start of the procedure. […] Diet was analyzed by the manufacturer to detect possible contaminants. Tap water was supplied by CASSA (Servei d’Aigües de Sabadell) and was provided to the animals by bottles ad libitum. […] Ministry of Agriculture, Livestock, and Fishing of the autonomous government of Catalonia, Spain. […] Formulations were prepared on the day of the study. […] Animals were weighed before each administration to adjust the required volume. […] Blood samples (0.5–0.8 mL) were collected from anesthetized animals with isoflurane by cava vein puncture in tubes containing K2-EDTA 5%. Blood samples were centrifuged at 10,000 rpm for 5 min to obtain plasma that was stored at −20 °C until analysis. Analytical measurements were performed by LC–MS/MS. Pharmacokinetics parameters were calculated with Phoenix 64 (WinNonlin).

The mark [5] stands for this setting: IC50 calculated for >50% inhibition at 10 μM.
The mark [6] stands for this setting: male, C57BL/6, mouse, in vivo, 3 mg/kg.

Values after ≈ are worked out from the molar mass of the structure shown. Values joined by “and” are separate entries in the source; they are usually repeats but may differ in a detail not shown here. Identical values can stand only once. Like-named read-outs stand apart in the source and are kept apart here.

For the molecule `O=C(NC12CC3CC(Cl)(CC(C1)c1ccccc13)C2)N[C@H]1CC[C@H](Oc2ccc(C(=O)O)cc2)CC1` [Compound 22, 4-[((1r,4r)-4-(3-(9-Chloro-5,6,8,9,10,11-hexahydro-7H-5,9:7,11-dimethanobenzo[9]annulen-7-yl)ureido)cyclohexyl)oxy]benzoic Acid], the “microsomal stability, percentage of remaining compound (human)” value in the series “Microsomal stability [1]” stood at 89%. For the same molecule, the “microsomal stability, percentage of remaining compound (rat)” value in “Microsomal stability [2]” stood at 52%. In addition, the solubility at 2 h in series [3] was found to be 13 µM (≈ 6.62 µg/mL). Besides, in the series with SH-SY5Y cells, the “cytotoxicity at the highest concentration tested” value (from here on “cytotoxicity”) is on record as “None of the compounds showed to be cytotoxic”. For the same molecule, the “CYP 2C9 inhibition” value on CYP 2C9 was found to be 31 ± 3%. Moreover, the figures for the IC50 against CYP 2C19 and at CYP 2C19 (setting [5]) were around 2000 nM and 2200 nM, respectively. Also, on CYP 2D6, the “CYP 2D6 inhibition” value worked out at 11 ± 3%. This molecule registered a hERG channel inhibition on hERG potassium channel of 44%. The “Total Concentration in mouse plasma, individual mice” value (“Total Concentration in mouse plasma” for short) is 151 ng/mL and 291 ng/mL and 622 ng/mL in series [4] (3 mg/kg ip, 0.25 h (5400 for 20 excluded as outlier)); 1520 ng/mL and 1980 ng/mL in series [4] (3 mg/kg ip, 0.5 h); 1100 ng/mL and 2640 ng/mL and 600 ng/mL in series [4] (3 mg/kg ip, 1 h); 2440.0 ng/mL and 2640.0 ng/mL and 5670.0 ng/mL in [4] (3 mg/kg ip, 2 h); 1960.0 ng/mL and 1350.0 ng/mL in series [4] (3 mg/kg ip, 4 h); 1160 ng/mL and 734.0 ng/mL and 1530 ng/mL in series [4] (3 mg/kg ip, 6 h). For the same molecule, the “Total Concentration in mouse plasma” value in [4] (3 mg/kg ip, 24 h) is 181.0 ng/mL and 40.6 ng/mL and 92.3 ng/mL. For the same molecule, in [4] (male, C57BL/6, mouse, in vivo, 3 mg/kg, 3 mg/kg ip, 0.25 h, read-out: Mean concentration in mouse plasma), the concentration at 0.25 h was determined as 355 ng/mL. For the same molecule, the concentration at 0.5 h in series [4] (male, C57BL/6, mouse, in vivo, 3 mg/kg, 3 mg/kg ip, 0.5 h, read-out: Mean concentration in mouse plasma) stood at 1620 ng/mL; in series [4] (male, C57BL/6, mouse, in vivo, 3 mg/kg, 3 mg/kg ip, 0.5 h, read-out: Total Concentration in mouse plasma, individual mice) it was 1350 ng/mL. Further, in series [4] (male, C57BL/6, mouse, in vivo, 3 mg/kg, 3 mg/kg ip, 1 h, read-out: Mean concentration in mouse plasma), the concentration at 1 h is 1450 ng/mL. In addition, the concentration at 2 h in [4] (male, C57BL/6, mouse, in vivo, 3 mg/kg, 3 mg/kg ip, 2 h, read-out: Mean concentration in mouse plasma) amounted to 3580 ng/mL. The concentration at 4 h in series [4] (male, C57BL/6, mouse, in vivo, 3 mg/kg, 3 mg/kg ip, 4 h, read-out: Mean concentration in mouse plasma) came out at 1520 ng/mL; in [4] (male, C57BL/6, mouse, in vivo, 3 mg/kg, 3 mg/kg ip, 4 h, read-out: Total Concentration in mouse plasma, individual mice), 1240 ng/mL. The concentration at 6 h in series [4] (male, C57BL/6, mouse, in vivo, 3 mg/kg, 3 mg/kg ip, 6 h, read-out: Mean concentration in mouse plasma) is 1140 ng/mL. For the same molecule, the concentration at 24 h in series [4] (male, C57BL/6, mouse, in vivo, 3 mg/kg, 3 mg/kg ip, 24 h, read-out: Mean concentration in mouse plasma) worked out at 105 ng/mL. Besides, the AUC(0-t) in [4] (setting [6]) was 22500 ng·h/mL. In series [4] (setting [6]), this molecule registered a Cl of 0.13 L/h/kg. For the same molecule, the peak level in series [4] (setting [6]) (Cmax) was 3580 ng/mL. Also, the time of peak concentration (Tmax) in series [4] (setting [6]) worked out at 2 h. The Vd in [4] (setting [6]) was 0.96 L/kg. Also, the half-life in series [4] (setting [6]) was 312 min. The AUC(0-inf) in series [4] (setting [6]) worked out at 23300 ng·h/mL.
With `CC12CC3CC(NC(=O)N[C@H]4CC[C@H](Oc5ccc(C(=O)O)cc5)CC4)(CC(C1)c1ccccc13)C2` [Compound 20, 4-[((1r,4r)-4-(3-(9-Methyl-5,6,8,9,10,11-Hexahydro-7H-5,9:7,11-dimethanobenzo[9]annulen-7-yl)ureido)cyclohexyl)oxy]benzoic Acid], the “microsomal stability, percentage of remaining compound (human)” value in “Microsomal stability [1]” amounted to 70%. Also, in the series “Microsomal stability [2]”, the “microsomal stability, percentage of remaining compound (rat)” value is on record as 2%. Also, the solubility at 2 h in series [3] turned out to be 4 µM (≈ 1.95 µg/mL). Further, in the series with SH-SY5Y cells, the “cytotoxicity” value is reported as “None of the compounds showed to be cytotoxic”. Besides, the “CYP 2C9 inhibition” value on CYP 2C9 is 17 ± 3%. Further, on CYP 2C19, the concentration for half-maximal inhibition (IC50) is around 2000 nM and the “fold more potency inhibiting the sEH than CYP2C19” value is given as 2000 fold. The half-inhibitory concentration (IC50) on CYP 2C19 (setting [5]) is 1900 nM. The “CYP 2D6 inhibition” value at CYP 2D6 turned out to be 1 ± 1%. Further, on hERG potassium channel, the hERG channel inhibition is reported as 4%. Also, in series [4] (male, C57BL/6, mouse, in vivo, 24 h), the “Total Concentration in mouse plasma” value is given as 0 ng/mL. Besides, in series [4] (setting [6]), the exposure AUC(0-t) was 2260 ng·h/mL, the Cl stood at 1.29 L/h/kg, the highest level (Cmax) was 1610 ng/mL and the time to peak (Tmax) stood at 0.5 h. Moreover, in series [4] (setting [6]), the Vd was 2.18 L/kg, the half-life was 70.2 min and the area under the curve AUC(0-inf) was found to be 2320 ng·h/mL.
Take `O=C(NC12CC3CC(F)(CC(C1)c1ccccc13)C2)N[C@H]1CC[C@H](Oc2ccc(C(=O)O)cc2)CC1` [Compound 23, 4-[((1r,4r)-4-(3-(9-Fluoro-5,6,8,9,10,11-hexahydro-7H-5,9:7,11-dimethanobenzo[9]annulen-7-yl)ureido)cyclohexyl)oxy]benzoic Acid]: the “microsomal stability, percentage of remaining compound (human)” value in “Microsomal stability [1]” worked out at 77%. Besides, in “Microsomal stability [2]”, the “microsomal stability, percentage of remaining compound (rat)” value is given as 60%. In addition, the solubility at 2 h in series [3] turned out to be 7 µM (≈ 3.45 µg/mL). In addition, the “cytotoxicity” value in the series on SH-SY5Y cells was “None of the compounds showed to be cytotoxic”.
